The text below walks through data of US20100035822A1, “PROLINE-RICH PEPTIDES, PHARMACEUTICAL COMPOSITION, USE OF ONE OR MORE PEPTIDES AND METHOD OF TREATMENT” (priority 2006, published 2010).

In assay [1] the target is T1, argininosuccinate synthase (AsS) (Mus musculus, UniProt P16460).
T1 construct: Cytosolic and membrane fractions of the renal extract (100 mg/ml total protein) were applied to separate columns; from tissue; host or cells: Balb-c mouse kidney, cytosolic and membrane fractions
T1 sequence (P16460 1-412): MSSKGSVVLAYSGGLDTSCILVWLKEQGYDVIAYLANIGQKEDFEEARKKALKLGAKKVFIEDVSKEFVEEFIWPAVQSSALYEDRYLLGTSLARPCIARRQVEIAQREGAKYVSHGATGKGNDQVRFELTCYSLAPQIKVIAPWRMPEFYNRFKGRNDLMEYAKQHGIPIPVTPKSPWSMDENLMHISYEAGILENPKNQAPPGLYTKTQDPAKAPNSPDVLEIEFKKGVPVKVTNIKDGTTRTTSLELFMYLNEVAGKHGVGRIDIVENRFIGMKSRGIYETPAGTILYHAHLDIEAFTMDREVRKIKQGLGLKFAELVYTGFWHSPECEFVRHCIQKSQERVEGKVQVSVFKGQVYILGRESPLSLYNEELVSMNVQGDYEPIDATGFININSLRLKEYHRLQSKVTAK
Briefly: Affinity chromatography of mouse kidney extract on peptide column; identification of the bound protein. Format: binding. The note with it: affinity column with SEQ ID NO 7 as ligand; crude mouse kidney extract. On the procedure:
Starting material were the cytosolic and plasma membrane crude extracts of mouse kidney cells homogenized in the buffer 10 mM Tris-HCl pH 7.5, 25 mM saccharose, 1 mM EDTA, and 1 mM PMSF (cytosolic fraction), or 1% Triton X-100 (plasma membrane fraction). Supernatants were dialyzed in 0.2 M NaHCO3, 0.5 M NaCl, pH 8.3, and separately applied to the affinity chromatography column Hitrap NHS-activated (GE Healthcare) coupled to 5 mg of peptide SEQ ID NO 7.
Preparing affinity columns. Columns were washed three times with 2 ml 1 mM HCl before homogeneous preparations of SEQ ID NO 7 (5 mg in 1 ml 0.2 M NaHCO3, 0.5 M NaCl, pH 8.3) were applied. After 30 min incubation at room temperature, peptides had been coupled, and the column was inactivated with buffer A (0.5 M ethanolamine, 0.5 M NaCl, pH 8.3), and washed with 0.2 M NaHCO3, 0.5 M NaCl, pH 8.3, and stored at 4° C. in 50 mM Na2HPO4, 0.1%, NaN3, pH 7.0. The columns were called HiTrap-SEQ. ID NO 7. […]
Affinity chromatography and analysis of the retained proteins by SDS-PAGE. […] Protein concentration (mg/ml) was determined by the method of Bradford (Bradford, M. M. A rapid and sensitive method for the quantitation of microgram quantities of protein utilizing the principle of protein-dye binding. Anal. Biochem. 72: 248-254, 1976) with the Protein Assay reagent from BioRad. […]

Assay [2] concerns SK-N-AS cells. Briefly: NO (nitrite) production in SK-N-AS neuroblastoma cells. Format: cell-based, human. The note with it: 24 hours incubation. On the procedure: Human neurobalsotma cells (SK-N-AS, ATCC no. CRL-2137) were kept in DMEM, supplemented with 10% FBS (fetal bovine serum) and 1% non-essential amino acids, at 5% CO2 atmosphere, at 37° C., and 95% relative humidity. Cells were treated with trypsin, and replicated when an adequate cell concentration had been reached. The medium was exchanged after 12 hours, and later, every third day.
The method of Feelisch et al. (Feelisch et al., Concomitant S-, N-, and heme-nitros(yl)ation in biological tissues and fluids: implications for the fate of NO in vivo. FASEB J 16: 1775-1785, 2000) was employed to analyze NO production in the endothelial and neuronal cells described above.
Cells were grown in Petri dishes to 80% confluence. Peptide SEQ ID NO 8 was added in the concentration range of 0-8 μM to HUVEC cells, and 0-100 μM to SK-N-AS cells, and incubation continued for 24 hours. Subsequently, 1 ml of medium was retrieved (extracellular medium), and replaced by 1 ml 10 mM N-ethylmaleimide. Cells were washed in PBS, and lyzed in RIPA buffer (50 mM Tris pH 7.5, 150 mM NaCl, 1% Nonidet p-40 (NP-40) and 0.5% Na-desoxycholate, 0.1% SDS, 1 mM DTPA, and 10 mM N-ethylmaleimide). Lysats were collected and incubated on ice for 20 minutes and centrifuged. Supernatants were kept at −80° C. […] The concentration of nitrite, derived from NO, was measured in the extracellular and the intracellular media.

Consider <ENWPHPQIPP [SEQ ID NO 8], for which the “binding to the approx. 46 kDa protein (AsS) of mouse kidney extract” value in assay [1] is “capable of selectively binding”. Also, in assay [2], the “increase of NO generation” value is given as “approximately 100%”.
